Laboratory results from ChEMBL document CHEMBL1201862, “PubChem BioAssay data set” (2004).
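Test compounds were applied to cells in 96-well plates for 48 hours at 5 doses. GI50 is the concentration that inhibits growth by half.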 The source made the active and inactive calls. Cut-off read from the data, not from the text of the source: active = GI50 up to about 1.1 µM and inactive = higher.

Assays:
Test in all cases: DTP human tumour cell line panel, 48 h
A549 = test system: A549
HCT-116 = test system: HCT-116
SF-295 = test system: SF-295
M14 = test system: M14
LOX IMVI = test system: LOX IMVI
HOP-92 = test system: HOP-92
Malme-3M = test system: Malme-3M
NCI-H226 = test system: NCI-H226
ACHN = test system: ACHN
K562 = test system: K562
SNB-19 = test system: SNB-19
OVCAR-3 = test system: OVCAR-3
SK-MEL-28 = test system: SK-MEL-28
EKVX = test system: EKVX
U-251 = test system: U-251
RXF 393 = test system: RXF 393

Measured: GI50

CC1(C)OC(=O)C(=Cc2ccc(O)cc2)C(=O)O1
inactive: A549 > 100 µM | HCT-116 > 100 µM | SF-295 > 100 µM | M14 > 100 µM | LOX IMVI > 100 µM | HOP-92 > 100 µM | Malme-3M > 100 µM | NCI-H226 > 100 µM | ACHN > 100 µM | K562 > 100 µM | SNB-19 > 100 µM | OVCAR-3 > 100 µM | SK-MEL-28 > 100 µM | EKVX > 100 µM | U-251 > 100 µM

CC1=C(C(=O)Nc2ccc(Cl)c(Cl)c2)C(c2ccco2)C(C(=O)Nc2ccc(Cl)c(Cl)c2)=C(C)N1
inactive: A549 12.5 µM | HCT-116 9.84 µM | SF-295 7.91 µM | M14 6.14 µM | HOP-92 15.8 µM | Malme-3M 14.8 µM | NCI-H226 12.5 µM | ACHN 5 µM | K562 7.06 µM | SNB-19 12.7 µM | OVCAR-3 7.98 µM | SK-MEL-28 11.7 µM | EKVX 14.9 µM | U-251 11 µM

CC(=O)N(C(C)=O)C1=C2c3ccccc3N(S(=O)(=O)c3ccccc3)C2n2c(=O)n(-c3ccccc3)c(=O)n2C1 (stereo not given)
inactive: A549 65.6 µM | HCT-116 43.3 µM | SF-295 31.8 µM | M14 27.3 µM | LOX IMVI 29.9 µM | HOP-92 24.2 µM | Malme-3M 20.9 µM | ACHN 30.9 µM | K562 40.1 µM | SNB-19 30.3 µM | OVCAR-3 25.5 µM | SK-MEL-28 30 µM | EKVX 21.9 µM | U-251 34.4 µM

Nc1cc2c(C3OC(CO)C(O)C3O)n[nH]c2c(=S)[nH]1 (stereo not given)
inactive: A549 > 100 µM | HCT-116 > 100 µM | SF-295 > 100 µM | RXF 393 32.7 µM | M14 > 100 µM | HOP-92 > 100 µM | Malme-3M > 100 µM | NCI-H226 > 100 µM | ACHN > 100 µM | K562 > 100 µM | SNB-19 > 100 µM | SK-MEL-28 > 100 µM | EKVX > 100 µM | U-251 > 100 µM

O=c1nc2sc3ccc4ccccc4c3n2nc1O
inactive: A549 > 100 µM | HCT-116 78.9 µM | SF-295 59.4 µM | RXF 393 15.5 µM | NCI-H226 30.5 µM | K562 44.5 µM | SNB-19 60.1 µM | OVCAR-3 55.2 µM | SK-MEL-28 40.4 µM | EKVX 60 µM | U-251 25.2 µM

O=C1/C(=C/c2ccccc2Cl)COc2ccc(Br)cc21
inactive: A549 97.3 µM | HCT-116 25.1 µM | SF-295 37.6 µM | RXF 393 39 µM | LOX IMVI > 100 µM | HOP-92 46.3 µM | Malme-3M > 100 µM | ACHN > 100 µM | K562 3.82 µM | OVCAR-3 37.3 µM | SK-MEL-28 > 100 µM | EKVX > 100 µM | U-251 40.6 µM

NC(=O)N/N=C(/Cc1nc2ccc(C(=O)c3ccccc3)cc2nc1O)C(=O)Nc1ccc(C(F)(F)F)cc1[N+](=O)[O-]
inactive: A549 > 100 µM | HCT-116 > 100 µM | SF-295 74.8 µM | M14 85.9 µM | LOX IMVI 79.4 µM | HOP-92 45.7 µM | Malme-3M > 100 µM | ACHN > 100 µM | K562 39.6 µM | SNB-19 > 100 µM | OVCAR-3 43.4 µM | SK-MEL-28 > 100 µM | EKVX 14.2 µM | U-251 75 µM

CCOC(=O)CC(NC(=O)c1ccc(/N=N/N(C)C)cc1)C(=O)OCC (stereo not given)
inactive: A549 > 100 µM | HCT-116 > 100 µM | SF-295 > 100 µM | M14 > 100 µM | LOX IMVI > 100 µM | Malme-3M > 100 µM | NCI-H226 > 100 µM | ACHN > 100 µM | K562 > 100 µM | SNB-19 > 100 µM | OVCAR-3 > 100 µM | SK-MEL-28 > 100 µM | EKVX > 100 µM | U-251 > 100 µM

c1ccc(COc2cccc3cccnc23)cc1
inactive: A549 > 100 µM | HCT-116 83.6 µM | SF-295 > 100 µM | RXF 393 42.4 µM | M14 > 100 µM | LOX IMVI 54.5 µM | HOP-92 28.4 µM | Malme-3M 48.4 µM | NCI-H226 > 100 µM | ACHN > 100 µM | K562 55 µM | SNB-19 > 100 µM | OVCAR-3 63.5 µM | SK-MEL-28 > 100 µM | EKVX 83.9 µM

Nc1ccc(/C=C/c2ccnc3ccccc23)cc1
inactive: A549 19.4 µM | HCT-116 17.5 µM | SF-295 16.1 µM | M14 20.2 µM | HOP-92 20.3 µM | Malme-3M 30.3 µM | NCI-H226 17.7 µM | ACHN 19.2 µM | K562 12.7 µM | SNB-19 27.6 µM | OVCAR-3 15 µM | SK-MEL-28 32.4 µM | U-251 16.8 µM

CC(=O)OCC1OC(n2cc(I)c(=O)[nH]c2=O)C(OC(C)=O)C(OC(C)=O)C1OC(C)=O (stereo not given)
inactive: A549 > 100 µM | HCT-116 > 100 µM | SF-295 > 100 µM | RXF 393 > 100 µM | M14 > 100 µM | LOX IMVI > 100 µM | HOP-92 > 100 µM | Malme-3M > 100 µM | NCI-H226 > 100 µM | ACHN > 100 µM | K562 > 100 µM | SNB-19 > 100 µM | OVCAR-3 > 100 µM | SK-MEL-28 > 100 µM | EKVX > 100 µM | U-251 > 100 µM

COC1OC(C)C(OCc2ccccc2)C(OS(=O)(=O)c2ccc(C)cc2)C1OS(=O)(=O)c1ccc(C)cc1 (stereo not given)
inactive: A549 > 100 µM | HCT-116 > 100 µM | SF-295 > 100 µM | RXF 393 > 100 µM | M14 > 100 µM | Malme-3M > 100 µM | NCI-H226 > 100 µM | ACHN > 100 µM | K562 > 100 µM | SNB-19 > 100 µM | OVCAR-3 > 100 µM | SK-MEL-28 > 100 µM | EKVX > 100 µM | U-251 > 100 µM

O=C1NC2(NC(=O)C1=O)Nc1ccccc1S2
inactive: A549 > 60.5 µM | HCT-116 19.2 µM | SF-295 38.6 µM | RXF 393 > 54.6 µM | M14 44.5 µM | LOX IMVI 18.9 µM | HOP-92 > 100 µM | Malme-3M 97.1 µM | NCI-H226 > 58.6 µM | ACHN 33.4 µM | K562 39.8 µM | SNB-19 > 100 µM | OVCAR-3 > 89.3 µM | SK-MEL-28 43.5 µM | EKVX > 100 µM | U-251 30.9 µM

CCCc1nc(NC#N)nc(C(=O)Nc2ccccc2)c1CC
inactive: A549 > 100 µM | HCT-116 > 100 µM | SF-295 > 100 µM | RXF 393 > 100 µM | M14 > 100 µM | LOX IMVI > 100 µM | HOP-92 > 100 µM | Malme-3M > 100 µM | NCI-H226 > 100 µM | ACHN > 100 µM | K562 > 100 µM | SNB-19 > 100 µM | OVCAR-3 > 100 µM | SK-MEL-28 > 100 µM | EKVX > 100 µM | U-251 > 100 µM

CCOC1=C2N=C(Cc3ccc(F)cc3)NC2C(=O)c2ccccc21 (stereo not given)
inactive: HCT-116 > 10 µM | RXF 393 18.3 µM | M14 25.5 µM | LOX IMVI 22.2 µM | HOP-92 10.7 µM | Malme-3M 11.5 µM | ACHN 14 µM | K562 17.9 µM | OVCAR-3 18.6 µM | SK-MEL-28 27.5 µM | EKVX 23.2 µM | U-251 33 µM

N#CCC(=O)Nc1ccccc1O
inactive: A549 > 100 µM | HCT-116 > 100 µM | SF-295 > 100 µM | RXF 393 > 100 µM | M14 > 100 µM | HOP-92 > 100 µM | Malme-3M > 100 µM | NCI-H226 > 100 µM | ACHN > 100 µM | K562 > 100 µM | SNB-19 > 100 µM | OVCAR-3 > 100 µM | SK-MEL-28 > 100 µM | EKVX > 100 µM | U-251 > 100 µM

CC12C=C[C@]3(CC[C@@H]4[C@@](C)(CO)CCC[C@]4(C)C3CC1)C2 (stereo not given in full)
inactive: A549 18.2 µM | HCT-116 17.9 µM | SF-295 19.5 µM | RXF 393 13.7 µM | M14 15.7 µM | LOX IMVI 15.6 µM | HOP-92 > 47.3 µM | Malme-3M 20.5 µM | ACHN 18.1 µM | K562 17.5 µM | SNB-19 19.6 µM | OVCAR-3 18.2 µM | SK-MEL-28 19.2 µM | EKVX 24.8 µM | U-251 16.6 µM

CC(c1ccccc1)N1O[C@]12CC[C@@]1(C)C(CCCC13OCCO3)C2 (stereo not given in full)
inactive: A549 24.5 µM | HCT-116 16.1 µM | SF-295 22 µM | RXF 393 23.6 µM | M14 17.6 µM | LOX IMVI 11.8 µM | HOP-92 11.1 µM | Malme-3M 32.1 µM | NCI-H226 > 100 µM | ACHN 16.5 µM | SNB-19 > 100 µM | OVCAR-3 18.7 µM | SK-MEL-28 47.8 µM | U-251 21.1 µM

C#CCOCn1cnc2c(S)ncnc21
inactive: A549 > 100 µM | SF-295 > 100 µM | RXF 393 > 100 µM | M14 > 100 µM | LOX IMVI > 100 µM | HOP-92 > 100 µM | Malme-3M > 100 µM | NCI-H226 > 100 µM | ACHN > 100 µM | K562 > 100 µM | SNB-19 > 100 µM | OVCAR-3 > 100 µM | SK-MEL-28 > 100 µM | EKVX > 100 µM | U-251 > 100 µM
